We go through five molecules from article PMC12419465, “Photoresponsive molecular tweezers modulate Taspase 1 activity” (RSC Chemical Biology, 2025).

Where two headings read alike, the source gives them in different places.

In the experiment the target is T1, wildtype Taspase 1 (Homo sapiens, UniProt Q9H6P5).
T1 sequence (Q9H6P5 1-233 limits assumed): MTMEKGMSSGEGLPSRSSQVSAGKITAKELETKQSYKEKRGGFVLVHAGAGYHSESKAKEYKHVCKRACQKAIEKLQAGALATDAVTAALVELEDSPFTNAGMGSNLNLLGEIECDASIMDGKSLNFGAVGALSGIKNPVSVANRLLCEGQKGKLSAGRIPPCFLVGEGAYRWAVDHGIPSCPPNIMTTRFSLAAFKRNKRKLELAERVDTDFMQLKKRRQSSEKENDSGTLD
T1 sequence (Q9H6P5 234-420 limits assumed): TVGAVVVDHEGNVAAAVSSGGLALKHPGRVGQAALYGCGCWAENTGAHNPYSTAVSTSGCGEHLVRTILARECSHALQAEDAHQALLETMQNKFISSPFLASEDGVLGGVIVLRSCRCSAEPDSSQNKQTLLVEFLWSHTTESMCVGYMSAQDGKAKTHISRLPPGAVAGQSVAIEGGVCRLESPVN
In words: Recombinant cleavage assay with GST-MLL2700–2850-GFP-His substrate. The format is biochemical. The note with it: for IC50: ligand conc. 10 - 100 µM, 200 nM Taspase 1, 5 µM substrate, n = 3, read-out: IC50 TW (recombinant cleavage, full-length protein); for Difference in inhibitory activity between E and Z isomers (times greater potency of E isomer): particularly at 50 μM. As for the experimental part:
The recombinant cleavage assay employing the recombinant fusion protein GST-MLL2700–2850-GFP-His, which contains the CS2 cleavage site of the Mixed-lineage leukemia (MLL) protein as a substrate for Taspase 1, was performed as described.[9,10]
Given that Taspase 1's active site is positioned directly at the base of the loop harboring the bipartite NLS (Fig. 1A, and Fig. S1), it is reasonable to expect that our photoswitchable tweezer constructs, which recognize this signal, might also influence proteolytic activity - similar to the inhibition observed with our “first-generation” multivalent ligands.[10] In principle the presence of a sterically demanding artificial ligand may hinder or even completely block substrate binding and subsequent cleavage. To assess this, we employed a well-established in vitro cleavage assay using a recombinant, truncated fusion protein harboring the second cleavage site (CS2) of the Mixed Lineage Leukemia 1 (MLL1) protein, a bona fide Taspase 1 substrate.[39] In this assay, the cleaved and uncleaved substrate fractions of the GST-MLL2700–2850-GFP-His substrate were separated on a Coomassie-stained gel, and signal intensities of the different cleavage bands were quantified (Fig. 7, Fig. S8, and Fig. S9). The addition of recombinant, proteolytically active Taspase 1 (200 nM) led to efficient substrate cleavage, which was inhibited by all photoswitchable tweezer constructs in a concentration-dependent manner. IC50 values for the full series of switchable tweezer constructs ranged from 20 to 50 μM, with measurements taken separately for both E and Z isomers Fig. (S9).
Fig. 7 Switchable tweezer constructs interfere with Taspase 1 proteolytic activity. Cleavage assay utilizing the cleavage site CS2 from the natural substrate MLL (GST-MLL2700–2850-GFP-His) and active wildtype Taspase 1. Inhibition of proteolysis was evaluated by the relative amount of uncleaved substrate. Briefly, 5 μM recombinant substrate were incubated with 200 nM wildtype Taspase 1-His and increasing concentrations of TWAAP0-4 (10 - 100 μM), pre-irradiated with either UV light (365 nm, violet), or green light (520 nm, green), or solvent only. Proteolytic activity in solvent-treated samples was set to 100%, and data from TWAAP-treated samples were normalized accordingly. IC50 values were determined by densitometric quantification of the cleavage bands from the gels shown in Fig. S9, followed by nonlinear curve fitting. These values were also used to generate the summary bar plots shown on the right. Data are shown as the mean ± SD from three independent experiments. Composed with https://BioRender.com.
Figure S8. Photoswitchable TWAAP constructs interfere with Taspase 1’s proteolytic activity.
Cleavage assay utilizing the cleavage site CS2 from the natural substrate MLL (GST -MLL2700-2850-GFP-His, 70 kDa) and active wildtype Taspase 1. Inhibition of proteolysis was evaluated by the relative amount of uncleaved in relation to cleaved substrate (50 kDa and 20 kDa, respectively). Briefly, 5 µM recombinant substrate were incubated with 200 nM wildtype Taspase 1-His and increasing concentrations (10 - 100 µM) of indicated TWAAP irradiated with UV (365 nm, left gel panels) or green light (520 nm, right gel panels). Solvent-treated samples (referred to as untreated, un.) served as reference, and as additional controls, Taspase 1 (-T) was omitted or only Taspase 1 (TASP1) was applied. Representative images of three independent experiments are shown. Composed with […]
Figure S9. Photoswitchable TWAAB constructs interfere with Taspase 1’s proteolytic activity. Cleavage assay utilizing the cleavage site CS2 from the natural substrate MLL (GST -MLL2700-2850-GFP-His, 70 kDa) and active wildtype Taspase 1. Inhibition of proteolysis was evaluated by the relative amount of uncleaved in relation to cleaved substrate (50 kDa and 20 kDa, respectively).
Briefly, 5 µM recombinant substrate were incubated with 200 nM wildtype Taspase 1-His and […]

`Cc1nn(-c2ccc(-n3cc(CCOP(=O)(O)Oc4c5c(c(OP(=O)(O)O)c6c4C4CC6c6cc7c(cc64)C4CC7c6ccccc64)C4CC5c5cc6c(cc54)C4CC6c5ccccc54)nn3)cc2)c(C)c1N=Nc1ccc(-n2cc(CCOP(=O)(O)Oc3c4c(c(OP(=O)(O)O)c5c3C3CC5c5cc6c(cc53)C3CC6c5ccccc53)C3CC4c4cc5c(cc43)C3CC5c4ccccc43)nn2)cc1` [TWAAP0]: the “Difference in inhibitory activity between E and Z isomers (times greater potency of E isomer)” value is given as 1.5–1.7 times. Besides, the IC50 (commonly the point on the concentration scale where inhibition reaches its midpoint) (E isomer) is 25.9 µM. For the same molecule, the IC50 (Z isomer) is 44.6 µM.
Take `Cc1nn(-c2ccc(-c3cn(CCOP(=O)(O)Oc4c5c(c(OP(=O)(O)O)c6c4C4CC6c6cc7c(cc64)C4CC7c6ccccc64)C4CC5c5cc6c(cc54)C4CC6c5ccccc54)nn3)cc2)c(C)c1N=Nc1ccc(-c2ccc(-c3cn(CCOP(=O)(O)Oc4c5c(c(OP(=O)(O)O)c6c4C4CC6c6cc7c(cc64)C4CC7c6ccccc64)C4CC5c5cc6c(cc54)C4CC6c5ccccc54)nn3)cc2)cc1` [TWAAP3]: the “Difference in inhibitory activity between E and Z isomers (times greater potency of E isomer)” value was “no difference”. Also, under “E isomer”, the 50% inhibitory concentration (IC50) is 49.4 µM. Further, for the setting “Z isomer”, the IC50 turned out to be 41.9 µM.
The matching figures for `Cc1nn(-c2ccc(C#Cc3ccc(-c4cn(CCOP(=O)(O)Oc5c6c(c(OP(=O)(O)O)c7c5C5CC7c7cc8c(cc75)C5CC8c7ccccc75)C5CC6c6cc7c(cc65)C5CC7c6ccccc65)nn4)cc3)cc2)c(C)c1N=Nc1ccc(C#Cc2ccc(-c3cn(CCOP(=O)(O)Oc4c5c(c(OP(=O)(O)O)c6c4C4CC6c6cc7c(cc64)C4CC7c6ccccc64)C4CC5c5cc6c(cc54)C4CC6c5ccccc54)nn3)cc2)cc1` [TWAAP4]: 1.5–1.7 times, 24.7 µM and 37.9 µM.
The matching figures for `O=P(O)(O)Oc1c2c(c(OP(=O)(O)OCCn3cc(-c4ccc(N=Nc5ccc(-c6cn(CCOP(=O)(O)Oc7c8c(c(OP(=O)(O)O)c9c7C7CC9c9cc%10c(cc97)C7CC%10c9ccccc97)C7CC8c8cc9c(cc87)C7CC9c8ccccc87)nn6)cc5)cc4)nn3)c3c1C1CC3c3cc4c(cc31)C1CC4c3ccccc31)C1CC2c2cc3c(cc21)C1CC3c2ccccc21` [TWAB1]: “no difference”, 22.3 µM and 17.9 µM.
With `Cc1nn(Cc2cn(CCOP(=O)(O)Oc3c4c(c(OP(=O)(O)O)c5c3C3CC5c5cc6c(cc53)C3CC6c5ccccc53)C3CC4c4cc5c(cc43)C3CC5c4ccccc43)nn2)c(C)c1N=Nc1ccc(-c2cn(CCOP(=O)(O)Oc3c4c(c(OP(=O)(O)O)c5c3C3CC5c5cc6c(cc53)C3CC6c5ccccc53)C3CC4c4cc5c(cc43)C3CC5c4ccccc43)nn2)cc1` [TWAAP2], the “Difference in inhibitory activity between E and Z isomers (times greater potency of E isomer)” value is given as “no difference”. For the same molecule, the IC50 (E isomer) is 17.5 µM. Further, the IC50 (Z isomer) turned out to be 25.4 µM.
